For 112 compounds, melting point results are on record in a melting point compilation (Tetko et al.).

Regarding `CC(C)CC1CCCCC1`, the melting point is -95 °C.
For `CCCOC(=O)Cn1cc(I)c(=O)c(I)c1`, the melting point turned out to be 186 °C.
As for `Brc1ccc(N2CCCC2)cc1`, the melting point lay in the range of 105 to 106 °C.
`N#Cc1c2ncccc2c(=O)n2c1sc1ccccc12` yielded a melting point of 275 °C.
With `C1CCC(N2CCNCC2)CC1`, the melting point was in the range of 28 to 32 °C.
`Cc1cnccc1N` came in with a melting point of 108 °C.
In the case of `Oc1cccc(N2CCOCC2)c1`, the melting point is 136 to 138 °C.
To `C=C1C(=O)C23C(OC)CC4C5(C)CCCC4(COC5)C2C(OC(C)=O)CC1C3OC(C)=O` (configuration not stated) belongs 160 °C; to `N#CCc1cccc(C(F)(F)F)c1Cl`, 57.5 °C; to `FC(F)(F)Oc1ccccc1`, -50 °C.
To `O=C1CC(=O)NCCNCCNCCNC(=O)CC(=O)NCCNCCNCCN1` belongs 199 to 202 °C.
For `CN(C)C(=S)Oc1ccc2ccccc2c1`, the melting point came out at 90 °C.
In turn, `C[Si](C)(C)c1ccc([Si](C)(C)C)cc1` displayed a melting point of 92 to 96 °C.
`O=S1(=O)OCCO1` gave a melting point of 99 °C.
As for `CCOC(=O)c1oc(C(=O)OCC)c(O)c1O`, the melting point lay in the range of 178 to 180 °C.
For the compound `NC(=S)c1ccc(Oc2ccc(C(F)(F)F)cn2)cc1`, the melting point lay within 175 to 178 °C.
In the case of `Cc1ccc(C)c(CCC(C)(C)C(=O)O)c1`, the melting point is 78 °C.
In turn, `CC1(c2ccccc2)CNCCO1` (configuration not stated) displayed a melting point of 36 °C.
As to `C=CC1=C(C(=O)O)N2C(=O)C(NC(=O)C(=NOCC(=O)O)c3csc(N)n3)C2SC1` (configuration not stated), the melting point worked out at 222 °C.
Consider `Cc1sc2c(c1C)C(=O)CS(=O)(=O)N2C`, for which the melting point fell in the range of 122 to 124 °C.
The compound `Cc1cc(C(F)(F)F)n2nc(N)c(/N=N/c3cc(Cl)c(Cl)cc3Cl)c2n1` had a melting point of 228 °C.
`CCOC(=O)C1=C(C)NC(C)=C(C(=O)OC)C1c1cccc([N+](=O)[O-])c1` (configuration not stated) gave a melting point of 158 °C.
The compound `O=[N+]([O-])c1cc(C(F)(F)F)ccc1CCl` yielded a melting point of 44 °C.
Take `BrC12CC3CC(CC(C3)C1)C2`: the melting point turned out to be 119 °C.
For the compound `COC(=O)c1cc(Br)c(C)c(Br)c1`, the melting point is 88 °C.
The compound `CCCSc1ncccc1C(=O)Cl` came in with a melting point of 43.4 °C.
As to `NC(Cc1ccc(Br)cc1)C(=O)O` (racemic), the melting point is 262 to 263 °C.
`O=c1[nH]cc(C(F)(F)F)c(=O)[nH]1` came in with a melting point of 316 °C.
To `CC(C)C(C(=O)O)C(=O)O` belongs 90 to 93 °C; to `CCc1ccc(-c2ccccc2)cc1`, 35 °C.
`C1CN(CCN2CCOCC2)CCO1`: the melting point was 75 °C.
`CC=CCCl`: the melting point was -65 °C.
In turn, `Ic1ccc(Cc2ccccc2)cc1` had a melting point of 38 to 40 °C.
In turn, `C=C1C(=O)C23C(OC(C)=O)CC4C(C)(C)CCC(OC(C)=O)C4(C)C2C(OC(C)=O)CC1(O)C3OC(C)=O` (configuration not stated) showed a melting point of 278 °C.
`C=CCn1c(S)nnc1CNC(=O)OC(C)(C)C` returned a melting point of 150 to 153 °C.
`O=C(CCl)Nc1ccccc1C(F)(F)F`: the melting point is 92 to 94 °C.
Regarding `c1ccc2c(c1)Cc1ccccc1S2`, the melting point was 128 °C.
For `COC(=O)[C@@H](C)Oc1ccc(O)cc1`, the melting point was 64 to 67 °C.
Consider `C#CC1(O)CCC2(C)C(C1)CC1(OCCO1)C1C3CCC(=O)C3(C)CCC12` (configuration not stated), for which the melting point was found to be 308 °C.
To `c1ccc2c3c(ccc2c1)-c1cccc2cccc-3c12` belongs 166 °C; to `CC(=O)Oc1ccc(C#N)cc1`, 57 °C.
On to `c1cc2c(cc1OC1OCC3C(c4ccc5c(c4)OCO5)OCC13)OCO2` (configuration not stated), for which the melting point was determined as 93.5 °C.
With `COc1ccc(OCCBr)cc1`, the melting point is 46 to 50 °C.
To `c1ccc2nsnc2c1` belongs 43 °C; to `O=C(O)CSC=Cc1ccccc1`, 81 to 84 °C; to `FC(F)(F)C(F)(Cl)Cl`, -56.6 °C.
In the case of `C[C@@H](NC(=O)c1ccccc1)c1ccccc1` it was 123 to 125 °C; in that of `CCOC(=O)Cc1nc(O)cs1`, 153 to 155 °C.
Turning to `Oc1ccc2c(c1)C13CCCCC1C(C2)NCC3` (configuration not stated), the melting point is 271 °C.
To `COC1CCC(OC)O1` (configuration not stated) belongs -45 °C.
As to `O=C(NCO)c1ccccc1`, the melting point was determined as 95 °C.
`COC(=O)N(C(=O)N1COC2(C(=O)OC)Cc3cc(Cl)ccc3C2=N1)c1ccc(OC(F)(F)F)cc1` (configuration not stated): the melting point was 88.1 °C.
As to `CC1(C)CCC(O)CC1`, the melting point lay within 28 to 30 °C.
In turn, `CCOC(=O)C(C#N)=C(SCc1ccccc1)SCc1ccccc1` showed a melting point of 82 °C.
`ClC1=C(Cl)C2(Cl)C3C4OC4(Cl)C(Cl)C3C1(Cl)C2(Cl)Cl` (configuration not stated) had a melting point of 144 °C.
`Cc1cscc1S(=O)(=O)c1ccc(Cl)cc1` came in with a melting point of 102 to 104 °C.
Regarding `CC(=O)/N=c1\sc(C(C)=O)nn1-c1ccc(F)cc1`, the melting point was found to be 157 °C.
The compound `O=C(NC(Cc1ccccc1)C(=O)O)OCc1ccccc1[N+](=O)[O-]` (configuration not stated) came in with a melting point of 140 to 142 °C.
Compound `CCN1CCc2c3n(c4ccccc24)C(C(=O)OC)=CCC31` (configuration not stated) gave a melting point of 120 °C.
On to `CC(C)(CCCC(C)(C)C(=O)O)C(=O)O`, for which the melting point was 169 to 171 °C.
In the case of `CC(=O)/C(=N\Nc1ccc(Cl)cc1)C(=O)C(F)(F)F`, the melting point was 124 °C.
In the case of `O=C1c2cc3ccccc3cc2C(=O)c2cc3ccccc3cc21`, the melting point is 391 to 394 °C.
Compound `S=C=Nc1ccccc1I` had a melting point of 39 °C.
As for `FC(F)OC(F)F`, the melting point is -123 °C.
Take `COC(=O)C(Br)C(Br)c1cccc(C(Br)C(Br)C(=O)OC)c1` (configuration not stated): the melting point amounted to 145 °C.
As for `COc1cc2c(cc1C(C)C)C(=O)C2`, the melting point was found to be 43 °C.
In the case of `CC1(C)OC(=O)C(=Cc2ccc(-c3cccc([N+](=O)[O-])c3)o2)C(=O)O1` it was 179 °C; in that of `CC12CCC(CC/C1=N\O)C2(C)C` (configuration not stated), 164 °C.
For `CC1(C)O[C@@H](CP(c2ccccc2)c2ccccc2)[C@@H](CP(c2ccccc2)c2ccccc2)O1`, the melting point lay within 86 to 88 °C.
In the case of `CC(C)(C)c1cccc2ccccc12`, the melting point was -11.3 °C.
To `Cc1cc(C(=O)Cl)ccc1Br` belongs 26 °C; to `O=C(Nc1nc(-c2ccc(Br)cc2)cs1)c1ccccc1`, 115 °C; to `Cc1nc2n(c(=O)c1CCN1CCC(c3noc4cc(F)ccc34)CC1)CCCC2`, 170 °C.
With `COCCOC1=C(N2CC2)C(=O)C(OCCOC)=C(N2CC2)C1=O`, the melting point was 80 °C.
As to `CCCCCCCC1CCCC(=O)O1` (configuration not stated), the melting point is -12 °C.
The compound `Cc1cncc(N2CCNCC2)n1` registered a melting point of 49 to 51 °C.
Compound `Cc1cnc(N)c(I)c1` had a melting point of 88 °C.
As to `Cc1csc(N)c1C(N)=O`, the melting point was 174 °C.
With `CCOC=C(C#N)S(=O)(=O)Cc1ccco1`, the melting point is 98 to 100 °C.
The compound `Cc1cc(C(C)(C)C)nc(C(C)(C)C)c1` yielded a melting point of 33 to 36 °C.
On to `CC(=O)Nc1ccc(Br)c(C(F)(F)F)c1`, for which the melting point was 116 to 119 °C.
`Cc1ccc(C(C(=O)NC(C)(C)C)N(C)C(=O)CCCc2ccc3ccc4cccc5ccc2c3c45)cc1` (configuration not stated) registered a melting point of 141 °C.
`Cc1cc(Cc2cc(C)cc(C(C)(C)C)c2O)c(O)c(C(C)(C)C)c1` gave a melting point of 123 °C.
Compound `O=C(CN1CCNCC1)N1CCCC1` showed a melting point of 75 to 76 °C.
In turn, `C=C(C)C1CC=C(C(=O)O)CC1` (configuration not stated) had a melting point of 129 to 135 °C.
On to `Nc1cccnc1O`, for which the melting point lay within 118 to 130 °C.
`Nc1cc(CCNC(=O)c2ccccc2)ccc1CCNC(=O)c1ccccc1` had a melting point of 210 °C.
For `CC(=O)/C=C/c1oc2ccc(Cl)cc2c1-c1ccc(C)o1`, the melting point fell in the range of 118 to 119 °C.
Turning to `O=C(O)c1ccc(-c2cncnc2)cc1`, the melting point lay within 316 to 317 °C.
For `FC(F)(F)C(F)(Cl)C(F)(Cl)C(F)(F)F` (configuration not stated), the melting point was -68 °C.
With `N#Cc1cnc(Br)nc1N`, the melting point amounted to 250 °C.
With `Nc1nnc(-c2ccc([N+](=O)[O-])o2)s1`, the melting point is 280 °C.
To `Cc1nn(-c2ccccc2)nc1CBr` belongs 72 to 73 °C; to `Cn1nc(C(=O)O)cc1-c1ccco1`, 142 to 144 °C.
The compound `Cc1nnc(NS(=O)(=O)c2ccc(N)cc2)s1` registered a melting point of 208 °C.
Regarding `CC/C=C/Br`, the melting point is -100 °C.
The compound `CC(=O)Oc1ccccc1C(=O)OCC(=O)N(C(C)C)C(C)C` came in with a melting point of 108 °C.
`CC(=O)c1ccc(C(C)=O)cc1` had a melting point of 112 °C.
The compound `Nc1ccc2c(C(F)(F)F)cc(=O)oc2c1` showed a melting point of 223 °C.
`CCOC(=O)C=Cc1ccc([N+](=O)[O-])cc1` gave a melting point of 139 °C.
In turn, `CNC(=O)CCl` yielded a melting point of 46 °C.
As to `c1ccc(C(c2ccccc2)(c2ccccc2)N2CCOCC2)cc1`, the melting point stood at 175 °C.
`CCCCNC(=O)CC#N`: the melting point was 54 to 55 °C.
`CC1(C)CC(=O)[C@]2(C)C=C[C@H]1N(c1ccccc1)O2`: the melting point was found to be 56.9 °C.
Regarding `CSc1nc2cc(N=Cc3ccc(F)cc3)ccc2[nH]1`, the melting point lay in the range of 174 to 175 °C.
In the case of `O=C(O)c1ccccc1P(c1ccccc1)c1ccccc1` it was 178 °C; in that of `Cc1cc(C)n(N=Cc2ccccc2Cl)c(=O)c1C#N`, 233 to 235 °C.
The compound `OCC1=CCN2CCC(O)C12` (configuration not stated) showed a melting point of 120 °C.
To `Oc1cccc(CN2CCCCC2)c1` belongs 140 °C; to `COC(=O)c1cnc(Br)s1`, 63 °C; to `Cn1c(CN)nc2ccccc21`, 261 to 263 °C.
For the compound `COc1ccc(CC(N)C(=O)NC2C(CO)OC(n3cnc4c(N(C)C)ncnc43)C2O)cc1` (configuration not stated), the melting point was found to be 176 °C.
